Assay results reported in US3932400A, “Thiazole derivatives” (Sumitomo Chemical Company, Limited, priority 1972, dated 1976).

Legend:
[1] = test system: β-adrenergic receptor; test: β-adrenergic receptor blocking activity in open chest dog; type: in vivo; conditions: relative to propranolol = 1, pentbarbital-anesthetized open chest dog; for β-adrenergic receptor blocking activity in open chest dog (propranolol = 1), DDE: depressive effect on depressor effect (DDE) induced by intravenous isoproternol; for β-adrenergic receptor blocking activity in open chest dog (propranolol = 1), DPC: depressive effect on positive chronotropic (DPC) effect induced by intravenous isoproternol; for β-adrenergic receptor blocking activity in open chest dog (propranolol = 1), DPI: depressive effect on positive inotropic (DPI) effect induced by intravenous isoproternol
Procedure: Note: A determination of β-adrenergic receptor blocking activity of test compounds in open chest dog was as follows. Thus dogs were anesthetized with pentbarbital sodium (administrated 30 - 40 mg./kg. intraveneously). Heart rate, myocardial contractile force and blood pressure were recorded with NIHON KODEN RM-150 polygraph. A depressive effect of test compounds on positive chronotropic (DPC), positive inotropic (DPI) and depressor effect (DDE) induced by isoproternol, which was injected intraveneously at a quarter interval, was determined.

[2] = test system: male mice; type: in vivo; conditions: intravenous; 10 male mice; up and down method

Row | Compound | β-adrenergic receptor blocking activity in open chest dog (propranolol = 1), DDE [1] | β-adrenergic receptor blocking activity in open chest dog (propranolol = 1), DPC [1] | β-adrenergic receptor blocking activity in open chest dog (propranolol = 1), DPI [1] | Acute toxicity LD50 [2] [mg/kg]
1 | CC(C)(C)NCC(O)CSc1nc(-c2ccc(C(N)=O)s2)cs1 (stereo not shown) [Example 37, 2-(3'-t-butylamino-2'-hydroxypropylthio)-4-(5'-carbamoyl-2'-thienyl)thiazole] | 8 | 15 | 15 | 86
2 | CC(=O)Nc1ccc(OCC(O)CNC(C)C)cc1 (stereo not shown) [Practolol, reference compound] | 0.08 | 0.5 | 0.7 | –
